US20250214965A1, “COMPOUND AS KIF18A INHIBITOR” (Hangzhou Innogate Pharma Co., Ltd., priority 2021, published 2025)
Where two headings read alike, the source gives them in different places. Each block holds one compound with its values, some of them ahead of it.

Legend:
HCC1954 = experiment: Inhibition of proliferation of breast cancer cell line HCC1954 (CellTiter Glo); assay type: cell-based; conditions: HCC1954 cells, 96 hours
OVCAR-3 = experiment: Inhibition of proliferation of ovarian cancer cell line OVCAR-3 (CellTiter Glo); assay type: cell-based; conditions: read-out: OVCAR-3 IC50
[1] = Pharmacokinetic study in rats
HCC1806 = experiment: Inhibition of proliferation of breast cancer cell line HCC1806 (CellTiter Glo); assay type: cell-based; conditions: read-out: HCC1806 IC50
KIF18A = KIF18A (Homo sapiens (Human), UniProt Q8NI77); experiment: Inhibition of KIF18A enzyme activity (ADP-Glo); assay type: biochemical; conditions: 60 min at 25° C.
Sequence of KIF18A (Q8NI77 whole entry): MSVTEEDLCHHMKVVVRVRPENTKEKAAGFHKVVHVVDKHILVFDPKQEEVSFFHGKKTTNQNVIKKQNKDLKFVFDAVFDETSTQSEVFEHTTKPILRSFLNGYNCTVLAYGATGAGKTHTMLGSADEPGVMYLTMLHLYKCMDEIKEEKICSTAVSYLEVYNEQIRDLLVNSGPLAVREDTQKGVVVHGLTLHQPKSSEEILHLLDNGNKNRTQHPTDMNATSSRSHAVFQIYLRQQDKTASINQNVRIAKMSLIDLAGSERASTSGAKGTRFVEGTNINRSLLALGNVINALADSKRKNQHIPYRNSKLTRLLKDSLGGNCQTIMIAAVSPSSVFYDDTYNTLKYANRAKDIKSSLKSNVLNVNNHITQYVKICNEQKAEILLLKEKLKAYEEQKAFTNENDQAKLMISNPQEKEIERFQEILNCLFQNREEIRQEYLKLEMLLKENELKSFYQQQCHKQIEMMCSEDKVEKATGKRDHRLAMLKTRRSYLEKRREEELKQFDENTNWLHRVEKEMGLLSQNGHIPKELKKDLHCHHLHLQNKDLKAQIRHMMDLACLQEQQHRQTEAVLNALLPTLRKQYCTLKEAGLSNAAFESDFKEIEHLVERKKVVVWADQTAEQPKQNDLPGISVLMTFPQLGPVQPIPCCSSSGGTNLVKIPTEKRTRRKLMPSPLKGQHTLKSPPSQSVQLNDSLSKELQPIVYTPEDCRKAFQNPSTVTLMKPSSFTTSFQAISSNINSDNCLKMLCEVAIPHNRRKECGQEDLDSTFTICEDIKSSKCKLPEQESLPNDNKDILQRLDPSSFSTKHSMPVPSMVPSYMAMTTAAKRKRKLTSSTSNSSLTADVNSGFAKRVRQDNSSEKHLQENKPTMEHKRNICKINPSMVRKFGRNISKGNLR
Protocol: The ADP-Glo method was used to test the enzymatic activity of KIF18A. The compound was diluted 3-fold with DMSO at a starting concentration of 3000 nM, for a total of ten concentrations, and tested in duplicate. Echo was used to transfer 25 nL of the diluted compound to a 384-well plate, and 2.5 μL of enzyme working solution was added. Plate was centrifuged at 1000 rpm for 1 min, and incubated at 25° C. for 10 min. 2.5 μL of ATP and substrate solution was added to start the reaction, and plate was incubated at 25° C. for 60 min. 4 μL of ADP-Glo solution was added to the 384-well plate, and plate was incubated at 25° C. for 40 min. 8 μL of detection solution was added and incubated at 25° C. for 40 min, and BMG was used to read the […] value. Inhibition rate was calculate according to the following formula: Inhibition rate (%)=(DMSO well−compound well)/(DMSO well−blank control well)×100%. The IC50 value of each compound was analyzed using the nonlinear regression method of XLFit 5.5.0 software. The formula is: Y=Bottom+(Top−Bottom)/(1+10^((Log IC50−X)*HillSlope)).

[2] = rat, in vivo, po, 3 mg/kg
[3] = Homo sapiens, OVCAR-3 cells, 96 hours, CellTiter Glo
[4] = male, SD, rat, plasma, po, 3 mg/kg
[5] = Homo sapiens, HCC1806 cells, 96 hours, CellTiter Glo

Compound: C[C@@H]1CN(c2cccc(NC(=O)c3ccc(NS(=O)(=O)CCO)cc3N3CCC(=C(F)F)CC3)n2)CCO1 [Compound 53]
IC50 (HCC1954; Homo sapiens): < 50 nM
IC50 (OVCAR-3; [3]): < 50 nM

Compound: N#Cc1ccc(NC(=O)c2ccc(NS(=O)(=O)CCO)cc2N2CCC(=C(F)F)CC2)nc1N1CCC(F)(F)CC1 [Compound 77]
IC50 (OVCAR-3; [3]): < 50 nM

Compound: Cc1cc(NC(=O)c2ccc(NS(=O)(=O)CCO)cc2N2CCC(=C(F)F)CC2)nc(N2CCC(F)(F)CC2)c1 [Compound 48]
IC50 (HCC1954): < 50 nM
IC50 (KIF18A): < 50 nM
AUC0-24 h [2]: 1724.65 ng·h/mL
Cmax [2]: 153.57 ng/mL
T1/2 [2]: 4.91 h
Tmax [2]: 4.00 h
IC50 (OVCAR-3): < 50 nM
IC50 (HCC1806): < 50 nM

Compound: CC(C)(C)NS(=O)(=O)c1cccc(NC(=O)c2ccc(NS(=O)(=O)C3(C)CC3)cc2N2CCC(=C(F)F)CC2)c1 [Compound 39]
IC50 (OVCAR-3; [3]): < 50 nM

Compound: CC(C)=C1CCN(c2nc(NCCO)ccc2C(=O)Nc2cccc(S(=O)(=O)C3CCCC3)c2)CC1 [Compound 44]
IC50 (OVCAR-3; [3]): < 2000 nM

Compound: CC(C)(C)NS(=O)(=O)c1cccc(NC(=O)c2ccc(NS(=O)(=O)CCO)cc2N2CCC(=C(F)F)CC2)c1 [Compound 41]
IC50 (OVCAR-3; [3]): < 50 nM

Compound: CC(C)(C)NS(=O)(=O)c1cccc(NC(=O)c2ccc(S(=O)(=O)C3COC3)cc2N2CCC(=C(F)F)CC2)c1 [Compound 73]
IC50 (OVCAR-3; [3]): < 200 nM
IC50 (HCC1806; [5]): < 500 nM

Compound: Cc1cc(NC(=O)c2ccc(NS(=O)(=O)[C@H](C)CO)cc2N2CCC(=C(F)F)CC2)nc(N2CCC(F)(F)CC2)c1 [Compound 82]
AUC(0-t) [1, 4]: 4520 ng·h/mL
Cmax [1, 4]: 363 ng/mL
Tmax [1, 4]: 4.67 h
half-life [1, 4]: 5.01 h

Compound: CP(=O)(c1cccc(NC(=O)c2ccc(NCCO)nc2N2CCC3(CC2)CC3)c1)C1CCCC1 (stereo not shown) [Compound 46]
IC50 (OVCAR-3; [3]): < 1500 nM

Compound: Cc1cc(NC(=O)c2ccc(NS(=O)(=O)C(C)(C)CO)cc2N2CCC(=C(F)F)CC2)nc(N2CCC(F)(F)CC2)n1 [Compound 60]
IC50 (HCC1954): < 75 nM
IC50 (KIF18A): < 150 nM
AUC0-24 h ([1]; male SD rats, oral 3 mg/kg): 1330.47 ng·h/mL
Cmax ([1]; male SD rats, oral 3 mg/kg): 90.70 ng/mL
T1/2 ([1]; male SD rats, oral 3 mg/kg): 7.47 h
Tmax ([1]; male SD rats, oral 3 mg/kg): 6.67 h
IC50 (OVCAR-3): < 50 nM
IC50 (HCC1806): < 200 nM

Compound: CC(C)(CO)Nc1ccc(C(=O)Nc2cccc(S(=O)(=O)C3CCCC3)c2)c(N2CCC(=C(F)F)CC2)n1 [Compound 59]
IC50 (HCC1954; Homo sapiens): < 75 nM
IC50 (OVCAR-3; [3]): < 75 nM
IC50 (HCC1806; [5]): < 200 nM

Compound: CC(C)(C)NS(=O)(=O)c1cccc(NC(=O)c2ccc(S(=O)(=O)NC(C)(C)C)cc2N2CCC(=C(F)F)CC2)c1 [Compound 63]
IC50 (HCC1954; Homo sapiens): < 50 nM
IC50 (OVCAR-3; [3]): < 50 nM
IC50 (HCC1806; [5]): < 75 nM

Compound: Cc1cc(NC(=O)c2ccc(NS(=O)(=O)CCO)cc2N2CCC(=C(F)F)CC2)cc(N2CCC(F)(F)CC2)c1 [Compound 56]
IC50 (HCC1954): < 75 nM
IC50 (KIF18A): < 50 nM
AUC0-24 h ([1]; male SD rats, oral 3 mg/kg): 2051.53 ng·h/mL
Cmax ([1]; male SD rats, oral 3 mg/kg): 175.28 ng/mL
T1/2 ([1]; male SD rats, oral 3 mg/kg): 3.83 h
Tmax ([1]; male SD rats, oral 3 mg/kg): 4.00 h
IC50 (OVCAR-3): < 50 nM
IC50 (HCC1806): < 100 nM

Compound: O=C(Nc1cccc(N2CCC(F)(F)CC2)n1)c1ccc(NS(=O)(=O)CCO)cc1N1CCC(=C(F)F)CC1 [Compound 40]
IC50 (OVCAR-3; [3]): < 50 nM

Compound: Cc1cc(NC(=O)c2ccc(NS(=O)(=O)CCO)cc2N2CCC(=C(F)F)CC2)nc(N2CCC(F)(F)CC2)n1 [Compound 33]
IC50 (HCC1954): < 75 nM
IC50 (KIF18A): < 50 nM
AUC0-24 h [2]: 10273.88 ng·h/mL
Cmax [2]: 717.6 ng/mL
T1/2 [2]: 7.05 h
Tmax [2]: 8.00 h
IC50 (OVCAR-3): < 75 nM
IC50 (HCC1806): < 200 nM

Compound: CC(C)(C)NS(=O)(=O)c1cccc(NC(=O)c2ccc(S(=O)(=O)C3(C)COC3)cc2N2CCC(=C(F)F)CC2)c1 [Compound 67]
IC50 (OVCAR-3; [3]): < 500 nM
IC50 (HCC1806; [5]): < 1000 nM

Compound: CC(C)(C)NS(=O)(=O)c1cccc(NC(=O)c2ccc(NC(C)(C)CO)nc2N2CCC(=C(F)F)CC2)c1 [Compound 62]
IC50 (OVCAR-3; [3]): < 200 nM
IC50 (HCC1806; [5]): < 500 nM

Compound: O=C(Nc1cccc(N2CC(F)(F)C2)n1)c1ccc(NS(=O)(=O)C2(CN3CCC3)CC2)cc1N1CCC2(CC1)CC2 [Compound 29]
IC50 (OVCAR-3; Homo sapiens, OVCAR-3, 96 h): < 500 nM
IC50 (HCC1806; Homo sapiens, HCC1806, 96 h): < 1000 nM

Compound: C=C(C)C1CCN(c2cc(NS(=O)(=O)C3(C)CC3)ccc2C(=O)Nc2cccc(S(=O)(=O)NC(C)(C)C)c2)CC1 [Compound 36]
IC50 (OVCAR-3; [3]): < 200 nM

More lines, now with the values ahead:

IC50 (HCC1954; Homo sapiens): < 100 nM
AUC(0-t) [1, 4]: 424 ng·h/mL
Cmax [1, 4]: 43.3 ng/mL
Tmax [1, 4]: 4.67 h
half-life [1, 4]: 6.68 h
IC50 (OVCAR-3; [3]): < 50 nM
IC50 (HCC1806; [5]): < 200 nM
Compound: Cc1cc(NC(=O)c2ccc(NS(=O)(=O)C3(CO)CC3)cc2N2CCC(=C(F)F)CC2)nc(N2CCC(F)(F)CC2)n1 [Compound 51]

IC50 (HCC1954; Homo sapiens): < 50 nM
AUC(0-t) [1, 4]: 3330 ng·h/mL
Cmax [1, 4]: 227 ng/mL
Tmax [1, 4]: 6.67 h
half-life [1, 4]: 7.18 h
IC50 (OVCAR-3; [3]): < 50 nM
IC50 (HCC1806; [5]): < 100 nM
Compound: Cc1cc(NC(=O)c2ccc(NS(=O)(=O)[C@H](C)CO)cc2N2CCC(=C(F)F)CC2)nc(N2CCC(F)(F)CC2)n1 [Compound 68]

IC50 (HCC1954; Homo sapiens): < 200 nM
IC50 (OVCAR-3; [3]): < 100 nM
IC50 (HCC1806; [5]): < 200 nM
Compound: Cc1cc(NC(=O)c2ccc(NS(=O)(=O)[C@@H](C)CO)cc2N2CCC(=C(F)F)CC2)nc(N2CCC(F)(F)CC2)n1 [Compound 69]

IC50 (OVCAR-3; [3]): < 1000 nM
IC50 (HCC1806; [5]): < 1000 nM
Compound: Cc1cc(NC(=O)c2ccc(NS(=O)(=O)C3(CN4CC(O)C4)CC3)cc2N2CCC3(CC2)CC3)nc(N2CCC(F)(F)CC2)n1 [Compound 20]

IC50 (OVCAR-3; [3]): < 200 nM
Compound: CCc1cc(NC(=O)c2ccc(NS(=O)(=O)CCO)cc2N2CCC(=C(F)F)CC2)nc(N2CCC(F)(F)CC2)n1 [Compound 75]

IC50 (HCC1954; Homo sapiens): < 75 nM
IC50 (OVCAR-3; [3]): < 50 nM
Compound: Cc1cc(NC(=O)c2ccc(NS(=O)(=O)C3CC(O)C3)cc2N2CCC3(CC2)CC3)nc(N2CCC(F)(F)CC2)n1 (stereo not shown) [Compound 47]

IC50 (OVCAR-3; [3]): < 200 nM
IC50 (HCC1806; [5]): < 500 nM
Compound: Cc1cc(NC(=O)c2ccc(NS(=O)(=O)C(C)CO)cc2N2CCC3(CC2)CC3)nc(N2CCC(=C(F)F)CC2)n1 (stereo not shown) [Compound 3C]

AUC(0-t) [1, 4]: 2240 ng·h/mL
Cmax [1, 4]: 160 ng/mL
Tmax [1, 4]: 5.33 h
half-life [1, 4]: 7.61 h
IC50 (OVCAR-3; [3]): < 50 nM
Compound: Cc1cc(NC(=O)c2ccc(NS(=O)(=O)CCO)cc2N2CCC(=C(F)F)CC2)nc(N2CCC(F)(F)CC2)c1F [Compound 79]

IC50 (OVCAR-3; [3]): < 50 nM
IC50 (HCC1806; [5]): < 100 nM
Compound: Cc1cc(NC(=O)c2ccc(NS(=O)(=O)C(C)CO)cc2N2CCC(=C(F)F)CC2)nc(N2CCC(F)(F)CC2)n1 (stereo not shown) [Compound 52]

IC50 (OVCAR-3; [3]): < 500 nM
IC50 (HCC1806; [5]): < 1000 nM
Compound: C[C@@H]1CN(c2cccc(NC(=O)c3ccc(NS(=O)(=O)C4(CN5CCC5)CC4)cc3N3CCC4(CC3)CC4)n2)CCO1 [Compound 30]

IC50 (OVCAR-3; [3]): < 500 nM
Compound: CC(C)=C1CCN(c2cc(NS(=O)(=O)CCO)ccc2C(=O)Nc2cc(C)nc(N3CCC(F)(F)CC3)n2)CC1 [Compound 35]

IC50 (OVCAR-3; [3]): < 500 nM
IC50 (HCC1806; [5]): < 1000 nM
Compound: Cc1cc(NC(=O)c2ccc(NS(=O)(=O)CCO)nc2N2CCC(=C(F)F)CC2)nc(N2CCC(F)(F)CC2)n1 [Compound 65]

IC50 (OVCAR-3; [3]): < 1500 nM
IC50 (HCC1806; [5]): < 1000 nM
Compound: C[C@@H]1CN(c2cccc(NC(=O)c3ccc(NS(=O)(=O)C4(CN5CC(O)C5)CC4)cc3N3CCC4(CC3)CC4)n2)CCO1 [Compound 32]

IC50 (OVCAR-3; [3]): < 500 nM
IC50 (HCC1806; [5]): < 500 nM
Compound: Cc1cc(NC(=O)c2ccc(NS(=O)(=O)C3(CO)CC3)cc2N2CCC3(CC2)CC3)nc(N2CCC(=C(F)F)CC2)n1 [Compound 13]

IC50 (HCC1954; Homo sapiens): < 1000 nM
IC50 (OVCAR-3; [3]): < 1000 nM
Compound: Cc1nc(N2CCC(F)(F)CC2)nc(NC(=O)c2ccc(NS(=O)(=O)CCO)cc2N2CCC(=C(F)F)CC2)c1F [Compound 74]

IC50 (OVCAR-3; [3]): < 200 nM
IC50 (HCC1806; [5]): < 500 nM
Compound: Cc1cc(NC(=O)c2ccc(NS(=O)(=O)C(F)CO)cc2N2CCC(=C(F)F)CC2)nc(N2CCC(F)(F)CC2)n1 (stereo not shown) [Compound 72]
